Values quoted from earlier work, collected in patent publication US20180291400A1, “METHODS AND COMPOSITIONS TO INCREASE HUMAN SOMATIC CELL NUCLEAR TRANSFER (SCNT) EFFICIENCY BY REMOVING HISTONE H3-LYSINE TRIMETHYLATION, AND DERIVATION OF HUMAN NT-ESC” (CHILDREN'S MEDICAL CENTER CORPORATION, priority 2015, published 2018).

Assays:
SUV39h2 = SUV39h2 (Homo sapiens, UniProt Q9H5I1)
Sequence of SUV39h2 (Q9H5I1 whole entry): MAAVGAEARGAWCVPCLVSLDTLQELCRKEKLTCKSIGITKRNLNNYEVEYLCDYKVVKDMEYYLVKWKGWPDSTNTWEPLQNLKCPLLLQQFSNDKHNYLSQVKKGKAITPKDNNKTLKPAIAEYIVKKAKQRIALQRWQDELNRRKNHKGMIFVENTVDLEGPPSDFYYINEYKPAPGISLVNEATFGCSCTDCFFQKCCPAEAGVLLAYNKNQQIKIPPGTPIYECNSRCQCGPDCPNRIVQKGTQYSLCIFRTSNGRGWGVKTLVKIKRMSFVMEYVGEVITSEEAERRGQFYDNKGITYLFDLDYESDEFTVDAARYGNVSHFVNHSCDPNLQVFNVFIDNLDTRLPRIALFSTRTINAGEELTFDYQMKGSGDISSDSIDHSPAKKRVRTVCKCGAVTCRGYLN

Structure (SMILES): Nc1nccc2c1ncn2[C@@H]1C=C(CO)[C@@H](O)[C@H]1O [DZNep, 3-Deazaneplanocin A]
- levels of H3K27me3 and H3K9me3 (SETDB1 H3K9me3 HMTase): reduced levels of both H3K27me3 and H3K9me3

Structure (SMILES): COc1cc2c(NC3CCN(C(C)C)CC3)nc(C3CCCCC3)nc2cc1OCCCN1CCCC1 [UNC0638, 2-Cyclohexyl-N-(1-isopropylpiperidin-4-yl)-6-methoxy-7-(3-(pyrrolidin-1-yl)propoxy)quinazolin-4-amine]
- IC50 (SUV39h2): > 10 µM
